Structures are written as SMILES.

Series [1] deals with P. berghei ANKA. The series is described as follows: Four day suppressive test in P. berghei-infected mice. The series is classed as in vivo, P. berghei (BALB/c mice).
A short description of series [2]: In vitro hemolysis on human red blood cells. The following applies: red blood cells (2% final suspension), % Haemolysis. The series is classed as cell-based.
Series [3] is described as follows: Experimental complexation with iron. It counts as binding. The note with it: ligand–iron(III), stoichiometry 1, text.

Take `CCN(CC)CCCC(C)Nc1ccnc2cc(Cl)ccc12` (stereo not shown) [CQ, chloroquine]: the parasitemia reduction percentage in series [1] (20 mg kg^–1, day 4) came out at 99.80%. Besides, the “%P, percentage of parasitemia” value in series [1] (20 mg kg^–1 for 4 days, day 4 post-infection, n = 6) is recorded as 0.2%. Besides, the hemolysis at 45 min, 1 mM in series [2] came out at 7.4%. Besides, the binding constant result in series [3] is “about 6300 M^–1”.
